We go through 9 compounds from publication PMC10579241, “Impact of trifluoromethyl and sulfonyl groups on the biological activity of novel aryl-urea derivatives: synthesis, in-vitro, in-silico and SAR studies” (Scientific Reports, 2023).

Holding throughout (format): cell-based
In one test the test system is Escherichia coli. The test is described as follows: Agar well diffusion, E. coli. (In general: Agar diffusion results depend on both activity and mobility in agar.)
Test [1] deals with human lung carcinoma (A549). The test is described as follows: cells. The conditions noted are these: A549, 48 h, 100 μg/mL.
In a further test the test system is colon cancer (HCT116). The test is described as follows: cells. The conditions noted are these: Homo sapiens, HCT-116, 48 h, 100 μg/mL.
The subject of test [2] is pancreatic cancer cell line (PACA2). The test is described as follows: cells. The conditions noted are these: Homo sapiens, PaCa-2, 48 h, 100 μg/mL.
The subject of another test is skin cancer (A431). The test is described as follows: cells. The conditions noted are these: Homo sapiens, A-431, 100 μg/mL, 48 h.
In another test the test system is Candida albicans. The test is described as follows: Agar well diffusion, C. albicans.
Test [3] deals with osteosarcoma cell line (HOS). The test is described as follows: cells. Particulars: Homo sapiens, 48 h; for mortality at 100 µg/mL: 100 μg/mL.
The test system of test [4] is hepatocellular carcinoma cell line (HePG2). The test is described as follows: cells. The conditions noted are these: Homo sapiens, 48 h; for mortality at 100 µg/mL: 100 μg/mL.
The test system of another test is Bacillus mycoides. The test is described as follows: microbe, parasite or virus in culture.
The test system of the next test is prostate cancer (PC3). The test is described as follows: cells. The conditions noted are these: Homo sapiens, 48 h, 100 μg/mL.
The mark [5] stands for this setting: Escherichia coli, read-out: Inhibition zones diameter.
Setting [6] is: Candida albicans, read-out: Inhibition zones diameter.
The mark [7] stands for this setting: Bacillus mycoides, read-out: Inhibition zones diameter.
Where [8] appears, read: Escherichia coli, E. coli, reference antibiotic 10 mcg, read-out: Inhibition zones diameter.
Setting [9] is: Candida albicans, C. albicans, reference antibiotic 10 mcg, read-out: Inhibition zones diameter.

A word on the mortality: it is the share of the test organisms that died. As usually defined, the IC50 is the concentration that inhibits the measured activity by half. A high value points to weaker potency. Regarding `Cc1ccc(NC(=O)Nc2ccc(OC(F)(F)F)cc2)cc1` [Compound 14, 1-(p-Tolyl)-3-[4-(trifluoromethoxy)phenyl]urea], the zone of inhibition at 10000 µg/mL with Escherichia coli (setting [5]) worked out at 17 ± 0.81 mm; in the test with Candida albicans (setting [6]), 17 ± 0.27 mm; with Bacillus mycoides (setting [7]) it was 15 ± 0.25 mm. The mortality at 100 µg/mL in [1] turned out to be 38.5 ± 1.41%; in the test on colon cancer (HCT116), 5.6 ± 0.47%; in [2], 47.2 ± 1.47%; in the test on skin cancer (A431), 2.3 ± 0.66%; in [3], 100%; in test [4], 65.3 ± 1.44%. The mortality at 100 µg/mL in the test on prostate cancer (PC3) amounted to 45.3 ± 1.28%. The compound also returned an IC50 in test [3] (MTT) of 61.6 ± 0.81 µM.
On to `CNC(C)C1CCC(N)C(OC2C(N)CC(N)C(OC3OCC(C)(O)C(NC)C3O)C2O)O1` (centres unmarked) [Gentamicin, reference compound], for which the zone of inhibition at 10 µg/disc turned out to be 12 ± 0.18 mm in the test on Escherichia coli (setting [8]), 12 ± 0.89 mm in the test with Candida albicans (setting [9]) and 11 ± 0.43 mm with Bacillus mycoides (setting [7]).
With `Cc1ccc(NC(=O)Nc2ccccc2C(F)(F)F)cc1` [Compound 17, 1-(p-Tolyl)-3-[2-(trifluoromethyl)phenyl]urea], the zone of inhibition at 10000 µg/mL in the test with Escherichia coli (setting [5]) turned out to be 16 ± 0.54 mm; in the test on Candida albicans (setting [6]), 15 ± 0.42 mm; with Bacillus mycoides (setting [7]), 18 mm. Also, the mortality at 100 µg/mL in test [1] was 7.3 ± 0.35%; in the test with colon cancer (HCT116) it was 7.5 ± 0.92%; in [2], more than 50%; with skin cancer (A431), 3.1 ± 1.14%; in [3] it was more than 50%; in test [4] it was 71.2 ± 1.45%. For the same compound, the mortality at 100 µg/mL in the test on prostate cancer (PC3) is more than 50%. Besides, in [4] (MTT), the IC50 was 199.3 ± 0.82 µM.
As to `CC[C@H]1OC(=O)[C@H](C)[C@@H](O[C@H]2C[C@@](C)(OC)[C@@H](O)[C@H](C)O2)[C@H](C)[C@@H](O[C@@H]2O[C@H](C)C[C@H](N(C)C)[C@H]2O)[C@](C)(O)C[C@@H](C)C(=O)[C@H](C)[C@@H](O)[C@]1(C)O` [Erythromycin, reference compound], the zone of inhibition at 15 µg/disc was found to be 29 ± 2.13 mm in the test with Escherichia coli (Escherichia coli, E. coli, reference antibiotic 15 mcg, read-out: Inhibition zones diameter); 25 mm with Candida albicans (Candida albicans, C. albicans, reference antibiotic 15 mcg, read-out: Inhibition zones diameter); 17 ± 0.15 mm with Bacillus mycoides (setting [7]).
Regarding `CC1(C)S[C@@H]2[C@H](NC(=O)[C@H](N)c3ccccc3)C(=O)N2[C@H]1C(=O)O` [Ampicillin, reference compound], the zone of inhibition at 10 µg/disc came out at 20 ± 1.05 mm in the test on Escherichia coli (setting [8]), 14 ± 0.25 mm in the test on Candida albicans (setting [9]) and 12 ± 0.93 mm in the test on Bacillus mycoides (setting [7]).
The matching figures for `NC[C@H]1O[C@H](O[C@H]2[C@H](O)[C@@H](O[C@H]3O[C@H](CO)[C@@H](O)[C@H](N)[C@H]3O)[C@H](N)C[C@@H]2N)[C@H](N)C[C@@H]1O` [Tobramycin, reference compound]: 13 ± 0.22 mm, 12 ± 0.61 mm and 10 ± 0.31 mm.
Regarding `COc1cc(NC(=O)NS(=O)(=O)c2ccc(C)cc2)cc(OC)c1` [Compound 10, N-[(3,5-Dimethoxyphenyl)carbamoyl]-4-methylbenzenesulfonamide], the figures for the zone of inhibition at 10000 µg/mL in the test with Escherichia coli (setting [5]), with Candida albicans (setting [6]) and with Bacillus mycoides (setting [7]) were 22 ± 0.39 mm, 21 ± 0.32 mm and 24 ± 0.87 mm, respectively. The mortality at 100 µg/mL in test [1] was 34.2 ± 1.2%; in the test on colon cancer (HCT116), 37.5 ± 1.12%; in test [2], more than 50%; with skin cancer (A431), 23.5 ± 0.97%; in test [3], 12.3 ± 1.21%; in the test with prostate cancer (PC3) it was 35.2 ± 0.89%.
`COc1cc(NC(=O)Nc2ccc(C)cc2)cc(OC)c1` [Compound 16, 1-[3,5-Dimethoxyphenyl]-3-(p-tolyl)urea]: the zone of inhibition at 10000 µg/mL in the test with Escherichia coli (setting [5]) stood at 16 ± 0.35 mm; in the test on Candida albicans (setting [6]), 16 ± 0.95 mm; in the test with Bacillus mycoides (setting [7]), 16 ± 0.97 mm. Further, the mortality at 100 µg/mL in test [1] is 35.9 ± 0.7%; in the test on colon cancer (HCT116), 5.9 ± 0.78%; in test [2], more than 50%; in the test with skin cancer (A431), 40.3 ± 1.22%; in test [3], more than 50%; in test [4], 34.2 ± 0.13%. Besides, the mortality at 100 µg/mL with prostate cancer (PC3) was 44.6 ± 0.25%.
Colstin [reference compound]: the Inhibition zones diameter in the test on Escherichia coli (E. coli, reference antibiotic 10 mcg) is recorded as 0 mm; in the test on Candida albicans (C. albicans, reference antibiotic 10 mcg), 0 mm; in the test on Bacillus mycoides, 0 mm.
